Assay results reported in US20240226302A1, “BIODEGRADABLE LIPIDS AND FORMULATIONS FOR INTRAMUSCULAR, IN VITRO, AND EX VIVO TRANSFECTION OF MRNA” (Massachusetts Institute of Technology, priority 2022, published 2024).

Experiments:
[1] = test system: mice; assay: Intramuscular injection of LNPs loaded with firefly luciferase mRNA, 0.25 mg/kg, luciferase expression; format: in vivo; details: for potency compared to MD-1 (luciferase expression): 0.25 mg/kg Fluc mRNA
Procedure: (§1) LNPs for in vitro studies and intramuscular injections were prepared by hand mixing. The lipid components were dissolved in ethanol and, separately, mRNA encoding for firefly luciferase (fLuc) was diluted into a solution of 10 mM citrate pH 3.0 at a concentration of […]. The two solutions were mixed in a 3:1 water:ethanol volume ratio by repeatedly pipetting up and down. For intravenous studies, nanoparticles were instead formed by mixing the ethanol and aqueous phases with a microfluidic chip as described previously.
The in vivo potency of the ionizable lipids was screened through intramuscular injection of LNPs loaded with mRNA encoding firefly luciferase protein. These LNPs were formulated with a molar composition of (35:16:46.5:2.5) using one of the synthesized ionizable lipids, DOPE as a helper lipid, cholesterol, and DMPE-PEG. Ionizable lipid AMG104 was chosen due to high in vitro mRNA transfection ability. mRNA-loaded LNPs were intramuscularly administered in mice at a dose of 0.25 mg/kg (5 μg) and expression of luciferase protein was monitored at 6 hours (0.25 day), and day 1, 2, 3, 5 and 7.
Additional lipids were synthesized varying length of the hydrophobic tail with or without one alkene or by varying the location of the internal alkene near or away from the ester linkage. The number of carbons on the amine headgroup was also varied (FIG. 4). […] The luciferase expression was monitored at 6 h, 24 h, and 48 h time points after intramuscular administration of Fluc mRNA dosed at 0.25 mg/kg formulated with various LNPs containing these lipids.

[2] = test system: ovalbumin; assay: Vaccination against ovalbumin by intramuscular injection of Ova mRNA, antibody titers and Elispot; format: in vivo
Procedure: AMG1041 was tested for vaccination against ovalbumin.

[3] = Lipid clearance monitored by LC-MS after intramuscular injection; format: in vivo; details: BALB/C mice, LC-MS (FIG. 15A)
Procedure: AMG1041 lipid clearance was monitored by LC-MS after intramuscular injection to BALB/C mice at various time points. AMG1041 was cleared within 24 hours from the injection site in the muscle (FIG. 15A). As a comparison, SM-102 was detectable even after 40 hours (FIG. 15B).^5 https://www.ncbi.nlm.nih.gov/pmc/articles/PMC6383180/).

[4] = test system: HeLa cells; assay: In vitro full factorial DOE formulation screening of LNPs, luciferase expression, Bright-Glo assay; format: cell-based
Procedure: as §1
HeLa cells were plated on a white, flat-bottom 96 well plate (Corning, Corning, NY) at a density of 15k cells/well and allowed to recover for 24 hrs. Each well was then dosed with 150 ng of mRNA, and, after 24 hrs., luciferase expression was determined using a Bright-Glo assay (Promega, Madison, WI). The first generation of ionizable lipids was screened in this manner and the results are shown as performance relative to a positive control MD-1^3 in a heatmap in FIG. 2.
For intravenous experiments, design of experiments (DOE) was used to systematically vary the ratios of each of the LNP components for lipid AMG104. First, an initial screening of each of the components was performed using a definitive screening design. This experimental design allows for identification of the LNP components which have the greatest effect on delivery potency. […]

[5] = test system: Jurkat cells; assay: mRNA (luciferase) transfection of Jurkat cells by LNPs, Bright-Glo assay; format: cell-based, human; details: 150 ng mRNA
Procedure: as §1
Based on high transfection potency in Hela cells, some of the potent lipids were tested for mRNA delivery efficacy in Jurkat cells, an immortalized human T-cell line for potential CAR-T therapeutic applications. Jurkat cells were cultured in a RPMI-1640 medium with L-glutamine supplemented with 10% bovine serum and 1% penicillin-streptomycin. Jurkat cells were plated on a white, flat-bottom 96 well plate (Corning, Corning, NY) at a density of 100k cells/well and co-incubated dosed with 150 ng of mRNA. Luciferase expression in the cells was determined after 24 hours using a Bright-Glo assay (Promega, Madison, WI) and normalized to cell viability (Multi-tox, Promega).

[6] = Intramuscular route screening with FLuc mRNA (0.1 μg), luciferase expression; format: in vivo; details: FLuc mRNA 0.1 μg (FIG. 12)
Procedure: In addition, the importance of the OH group was evaluated. The importance of the orientation of the ester and OH was also evaluated (FIG. 10). The additional tails were also used to synthesize AMG1058, AMG1059, and AMG1041OHD. From a screening experiment using 0.1 μg FLuc mRNA dose, it was determined that the ester's specific orientation and the OH groups' location are important for G41 potency and that minor alterations can dramatically decrease potency.
The potency of these lipids was tested in vivo via intramuscular administration. AMG1041OHD was not tested in vivo due to difficulty in formulating these particles. The FLuc mRNA (0.1 μg) intramuscular route screening data is shown in FIG. 12 for the AMG1041 derivative lipids.

[7] = comparison, FIG. 15B, reference 5 (Hassett et al.); cited from earlier work

With `CCCCCC/C=C\CCCC(=O)OCC(O)CN1CCCN(CC(O)COC(=O)CCC/C=C\CCCCCC)CCN(CC(O)COC(=O)CCC/C=C\CCCCCC)CCCN(CC(O)COC(=O)CCC/C=C\CCCCCC)CC1` (stereo not shown) [AMG1041] the “luciferase expression, times higher” value ([1]; 0.25 mg/kg Fluc mRNA (FIG. 5A), comparator not stated, MD-1 named in the same sentence) was 2-3 times, the “cellular response from Elispot assay as compared to SM-102 and MD-1” value ([2]; after day 28 (FIG. 14)) was “strong cellular response” and the “antibody titers, potency compared to SM-102” value ([2]; day 14, intramuscular, varying Ova mRNA doses (FIG. 14)) was “higher potency compared to SM-102”. The “time to clearance from the injection site in the muscle” value [3] was ≤ 24 h.

For `CCCCCC/C=C\CCCCCCCC(=O)OCC(O)CN1CCCN(CC(O)COC(=O)CCCCCCC/C=C\CCCCCC)CCN(CC(O)COC(=O)CCCCCCC/C=C\CCCCCC)CCCN(CC(O)COC(=O)CCCCCCC/C=C\CCCCCC)CC1` (stereo not shown) [AMG1043], the “potency compared to MD-1 (luciferase expression)” value [1] was “nearly as potent as”.

In the case of `CCCCCC/C=C\CCCCCCCCCC(=O)OCC(O)CN1CCCN(CC(O)COC(=O)CCCCCCCCC/C=C\CCCCCC)CCN(CC(O)COC(=O)CCCCCCCCC/C=C\CCCCCC)CCCN(CC(O)COC(=O)CCCCCCCCC/C=C\CCCCCC)CC1` (stereo not shown) [AMG1044], the “potency compared to MD-1 (luciferase expression)” value [1] is reported as “nearly as potent as”.

In the case of `CCCCCCCC/C=C\CCCCCCCC(=O)OCC(O)CN1CCCN(CC(O)COC(=O)CCCCCCC/C=C\CCCCCCCC)CCN(CC(O)COC(=O)CCCCCCC/C=C\CCCCCCCC)CCCN(CC(O)COC(=O)CCCCCCC/C=C\CCCCCCCC)CC1` (stereo not shown) [AMG104], the “luciferase protein expression in mice” value ([1]; 0.25 mg/kg (5 μg) fLuc mRNA, LNP 35:16:46.5:2.5 ionizable lipid:DOPE:cholesterol:DMPE-PEG) is reported as “high luciferase protein expression”, the “potency compared to MD-1 (luciferase expression)” value [1] is reported as “comparable to that of MD1” and the “in vitro performance of formulation 2 relative to the original (control) formulation 1” value ([4]; AMG104 LNP formulation 2 (helper 35%, ionizable lipid 30%, cholesterol 32.5%, DMPE-PEG 2.5%, lipid:mRNA 10:1) vs formulation 1 (16/35/46.5)) is reported as ~8.2 ×. The in vitro transfection ([4]; AMG104 using formulation 2) was “extremely potent in vitro transfection”, the “transfection in jurkat cells as compared to MD-1 lipid” value ([5]; 24 hours (FIG. 3)) was “increased transfection” and the “mRNA transfection compared to commercially used lipofectamine positive controls” value ([5]; 24 hours, normalized to cell viability (FIG. 3)) was “higher mRNA transfection”.

With `C/C=C\C/C=C\CCCCCC(=O)OCC(O)CN1CCCN(CC(O)COC(=O)CCCCC/C=C\C/C=C\C)CCN(CC(O)COC(=O)CCCCC/C=C\C/C=C\C)CCCN(CC(O)COC(=O)CCCCC/C=C\C/C=C\C)CC1` (stereo not shown) [AMG1056] the “luciferase expression compared to control sample with MD-1” value [6] was “performed similarly”.

For `CCCC/C=C\CCCCCCCC(=O)OCC(O)CN1CCCN(CC(O)COC(=O)CCCCCCC/C=C\CCCC)CCN(CC(O)COC(=O)CCCCCCC/C=C\CCCC)CCCN(CC(O)COC(=O)CCCCCCC/C=C\CCCC)CC1` (stereo not shown) [AMG1042], the “potency compared to MD-1 (luciferase expression)” value [1] was “nearly as potent as”.

With `CCCC/C=C\C/C=C\CCC(=O)OCC(O)CN1CCCN(CC(O)COC(=O)CC/C=C\C/C=C\CCCC)CCN(CC(O)COC(=O)CC/C=C\C/C=C\CCCC)CCCN(CC(O)COC(=O)CC/C=C\C/C=C\CCCC)CC1` (stereo not shown) [AMG1053] the “luciferase expression compared to control sample with MD-1” value [6] was “nearly as well as the control sample with MD-1”.

In the case of `CCCCCCCCCCCOC(=O)CCCCCN(CCO)CCCCCCCC(=O)OC(CCCCCCCC)CCCCCCCC` [SM-102], the “time after which lipid was still detectable” value [7] is listed as > 40 h.
